# Laboratory results taken from patent US8952024B2, “Herbicidal pyrimidone derivatives” (E I du Pont de Nemours and Company, priority 2009, dated 2015).
# Legend:
# Assay in all cases: Test D pre-/postemergence plant response
# Assay type in all cases: in vivo
# [1] = test system: ragweed (common ragweed, Ambrosia elatior)
# How it was run: (§1)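 Greenhouse assay: sown seeds in loam/sand received preemergence spray; simultaneously, emerged seedlings (1- to 4-leaf, 2–18 cm) got postemergence spray of the same surfactant-containing formulation. Rating at 14–21 days by visual comparison with controls, 0 = no effect to 100 = complete control.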
# [2] = test system: spanishneedles (Bidens bipinnata)
# How it was run: as §1
# [3] = test system: dayflower (Virginia (VA) dayflower, Commelina virginica)
# How it was run: as §1
# [4] = test system: sowthistle (common sowthistle, Sonchus oleraceous)
# How it was run: as §1
# [5] = test system: green foxtail (Setaria viridis)
# How it was run: as §1
# [6] = test system: itchgrass (Rottboellia cochinchinensis)
# How it was run: as §1
# [7] = Postemergence, 31 g ai/ha, scale 0 to 100
# [8] = Postemergence, 62 g ai/ha, scale 0 to 100 (0 no effect, 100 complete control)
# [9] = Postemergence, 125 g ai/ha, scale 0 to 100 (0 no effect, 100 complete control)
# [10] = Postemergence, 250 g ai/ha, scale 0 to 100 (0 no effect, 100 complete control)
# [11] = Preemergence, 125 g ai/ha, scale 0 to 100
# [12] = Preemergence, 250 g ai/ha, scale 0 to 100
# [13] = Preemergence, 62 g ai/ha, scale 0 to 100
# [14] = Postemergence, 16 g ai/ha, scale 0 to 100
# [15] = Preemergence, 16 g ai/ha, scale 0 to 100, 0 no effect, 100 complete control
# [16] = Preemergence, 31 g ai/ha, scale 0 to 100 (0 no effect, 100 complete control)
# [17] = Preemergence, rate not given, scale 0 to 100, 0 no effect, 100 complete control
structure (smiles),measurement,setting,value
"COCCn1c(-c2cc(F)cc(F)c2)ncc(C(=O)C2=C(O)C3CCC(C3)C2=O)c1=O (stereo not drawn) [Compound 243, 2-(3,5-difluorophenyl)-5-[(2-hydroxy-4-oxobicyclo[3.2.1]oct-2-en-3-yl)carbonyl]-3-(2-methoxyethyl)-4(3H)-pyrimidinone]","Plant response rating, Ragweed",[1]; [7],65
same,"Plant response rating, Ragweed",[1]; [8],70
same,"Plant response rating, Ragweed",[1]; [9],75
same,"Plant response rating, Ragweed",[1]; [10],75
same,"Plant response rating, Ragweed",[1]; [11],100
same,"Plant response rating, Ragweed",[1]; [12],100
same,"Plant response rating, Spanishneedles",[2]; [7],60
same,"Plant response rating, Spanishneedles",[2]; [8],65
same,"Plant response rating, Spanishneedles",[2]; [9],70
same,"Plant response rating, Spanishneedles",[2]; [10],70
same,"Plant response rating, Spanishneedles",[2]; [11],100
same,"Plant response rating, Spanishneedles",[2]; [12],100
same,"Plant response rating, Dayflower, VA",[3]; [7],35
same,"Plant response rating, Dayflower, VA",[3]; [8],65
same,"Plant response rating, Dayflower, VA",[3]; [9],70
same,"Plant response rating, Dayflower, VA",[3]; [10],75
same,"Plant response rating, Dayflower, VA",[3]; [13],100
same,"Plant response rating, Dayflower, VA",[3]; [11],100
same,"Plant response rating, Dayflower, VA",[3]; [12],100
same,"Plant response rating, Sowthistle",[4]; [7],90
same,"Plant response rating, Sowthistle",[4]; [8],90
same,"Plant response rating, Sowthistle",[4]; [9],95
same,"Plant response rating, Sowthistle",[4]; [10],98
same,"Plant response rating, Foxtail, Green",[5]; [7],80
same,"Plant response rating, Foxtail, Green",[5]; [8],85
same,"Plant response rating, Foxtail, Green",[5]; [9],90
same,"Plant response rating, Foxtail, Green",[5]; [10],98
same,"Plant response rating, Foxtail, Green",[5]; [13],35
same,"Plant response rating, Foxtail, Green",[5]; [11],100
same,"Plant response rating, Foxtail, Green",[5]; [12],100
same,"Plant response rating, Itchgrass",[6]; [7],75
same,"Plant response rating, Itchgrass",[6]; [8],75
same,"Plant response rating, Itchgrass",[6]; [9],75
same,"Plant response rating, Itchgrass",[6]; [10],85
same,"Plant response rating, Itchgrass",[6]; [13],25
same,"Plant response rating, Itchgrass",[6]; [11],50
same,"Plant response rating, Itchgrass",[6]; [12],100
COCCCn1c(-c2cccc(F)c2)ncc(C(=O)C2=C(O)C3CCC(C3)C2=O)c1=O (stereo not drawn) [Compound 238],"Plant response rating, Ragweed",[1]; [7],70
same,"Plant response rating, Ragweed",[1]; [8],75
same,"Plant response rating, Ragweed",[1]; [9],75
same,"Plant response rating, Ragweed",[1]; [10],75
same,"Plant response rating, Spanishneedles",[2]; [7],65
same,"Plant response rating, Spanishneedles",[2]; [8],70
same,"Plant response rating, Spanishneedles",[2]; [9],70
same,"Plant response rating, Spanishneedles",[2]; [10],75
same,"Plant response rating, Dayflower, VA",[3]; [7],35
same,"Plant response rating, Dayflower, VA",[3]; [8],65
same,"Plant response rating, Dayflower, VA",[3]; [9],70
same,"Plant response rating, Dayflower, VA",[3]; [10],75
same,"Plant response rating, Sowthistle",[4]; [7],95
same,"Plant response rating, Sowthistle",[4]; [8],95
same,"Plant response rating, Sowthistle",[4]; [9],95
same,"Plant response rating, Sowthistle",[4]; [10],95
same,"Plant response rating, Foxtail, Green",[5]; [7],75
same,"Plant response rating, Foxtail, Green",[5]; [8],80
same,"Plant response rating, Foxtail, Green",[5]; [9],80
same,"Plant response rating, Foxtail, Green",[5]; [10],95
same,"Plant response rating, Itchgrass",[6]; [7],70
same,"Plant response rating, Itchgrass",[6]; [8],70
same,"Plant response rating, Itchgrass",[6]; [9],75
same,"Plant response rating, Itchgrass",[6]; [10],80
COCCn1c(-c2ccccc2)ncc(C(=O)C2=C(O)CCCC2=O)c1=O [Compound 85],"Plant response rating, Ragweed",[1]; [7],80
same,"Plant response rating, Ragweed",[1]; [8],80
same,"Plant response rating, Ragweed",[1]; [9],100
same,"Plant response rating, Ragweed",[1]; [14],80
same,"Plant response rating, Ragweed",[1]; [15],90
same,"Plant response rating, Ragweed",[1]; [16],95
same,"Plant response rating, Ragweed",[1]; [11],100
same,"Plant response rating, Ragweed",[1]; [17],100
same,"Plant response rating, Spanishneedles",[2]; [7],75
same,"Plant response rating, Spanishneedles",[2]; [8],90
same,"Plant response rating, Spanishneedles",[2]; [9],95
same,"Plant response rating, Spanishneedles",[2]; [14],75
same,"Plant response rating, Spanishneedles",[2]; [15],90
same,"Plant response rating, Spanishneedles",[2]; [16],98
same,"Plant response rating, Spanishneedles",[2]; [11],100
same,"Plant response rating, Spanishneedles",[2]; [17],98
same,"Plant response rating, Dayflower, VA",[3]; [7],30
same,"Plant response rating, Dayflower, VA",[3]; [8],60
same,"Plant response rating, Dayflower, VA",[3]; [9],80
same,"Plant response rating, Dayflower, VA",[3]; [14],20
same,"Plant response rating, Dayflower, VA",[3]; [15],5
same,"Plant response rating, Dayflower, VA",[3]; [16],10
same,"Plant response rating, Dayflower, VA",[3]; [13],90
same,"Plant response rating, Dayflower, VA",[3]; [11],95
same,"Plant response rating, Sowthistle",[4]; [7],100
same,"Plant response rating, Sowthistle",[4]; [8],100
same,"Plant response rating, Sowthistle",[4]; [9],100
same,"Plant response rating, Sowthistle",[4]; [14],100
same,"Plant response rating, Sowthistle",[4]; [15],100
same,"Plant response rating, Sowthistle",[4]; [16],100
same,"Plant response rating, Sowthistle",[4]; [11],100
same,"Plant response rating, Foxtail, Green",[5]; [7],25
same,"Plant response rating, Foxtail, Green",[5]; [8],35
same,"Plant response rating, Foxtail, Green",[5]; [9],65
same,"Plant response rating, Foxtail, Green",[5]; [14],20
same,"Plant response rating, Foxtail, Green",[5]; [15],0
same,"Plant response rating, Foxtail, Green",[5]; [16],5
same,"Plant response rating, Foxtail, Green",[5]; [13],40
same,"Plant response rating, Foxtail, Green",[5]; [11],70
same,"Plant response rating, Itchgrass",[6]; [7],35
same,"Plant response rating, Itchgrass",[6]; [8],65
same,"Plant response rating, Itchgrass",[6]; [9],70
same,"Plant response rating, Itchgrass",[6]; [14],30
same,"Plant response rating, Itchgrass",[6]; [15],10
same,"Plant response rating, Itchgrass",[6]; [16],15
same,"Plant response rating, Itchgrass",[6]; [13],35
same,"Plant response rating, Itchgrass",[6]; [11],50
